# According to patent publication US8247170B2, “Detection of penicillin tolerance in Group B Streptococcus: single nucleotide polymorphisms in penicillin binding protein 4” (priority 2008, dated 2012):
# Test system: GBS clinical isolates and laboratory strains
# Test: Macrobroth penicillin tolerance assay
# Assay type: cell-based, Group B Streptococcus
# Conditions: then 24 h drug-free; for 100xMIC, regrowth O.D.600: Penicillin G 100×MIC90 48 h; for 300xMIC, regrowth O.D.600: Penicillin G 300×MIC90 48 h; for 10xMIC, regrowth O.D.600: Penicillin G 10×MIC90 48 h; for 30xMIC, regrowth O.D.600: Penicillin G 30×MIC90 48 h
# Procedure: Using this modified penicillin tolerance assay, tolerant strains from the GBS clinical isolates can be more efficiently identified. In this macrobroth culture format, 25 ml THB broth GBS cultures (containing clinical isolates) were grown to an early exponential growth phase (˜0.2 OD600). Cell cultures (6 ml) were collected and divided into 4 culture tubes. […] Cell cultures were shaken at 150 rpm in order to maintain cells in suspension for proper growth. Subcultures (1/20 dilution) of cells were put into fresh THB containing […] Penase (i.e., 100 μl of Penase 10,000 U stock into 4 ml THB culture). Subcultures were allowed to grow for 24 hours at 37° C. Cell growth was monitored by OD (see Example 2).
# (I) Bacterial Strains and Culture Conditions. GBS strains A909 (serotype IA), 515 (serotype IA), NEM316 (serotype III), COHI (serotype III), 2603V/R (serotype V) and O90R (non-typable) were used in this study. E. coli Top10 cells were used for the recombination experiments. GBS was cultured in Todd Hewitt broth (THB) or Tryptic Soy 5% sheep blood (TS) media and E. coli in Luria-broth (LB) medium or agar. Antibiotics were used at the following concentrations: for GBS—penicillin G (MIC90 0.06 μg ml^−1), ampicillin (MIC90 0.12 μg ml^−1), vancomycin (MIC90 2 μg ml^−1), cefazolin (MIC90 1 μg ml^−1) and chloramphenicol (5 μg ml^−1); for E. coli—ampicillin (50 μg ml^−1) and chloramphenicol (5 μg ml^−1). Both GBS and E. coli cultures were grown at 37° C. (II) Tolerance Using the MBC:MIC Ratio Method. Three GBS laboratory strains (i.e., A909, NEM316, and O90R) were cultured overnight for 18 h at 37° C. in THB. Subcultures in THB were subsequently grown to exponential phase (OD600˜0.3; i.e. 5×10^5 cfu/ml) at 37° C. Cell cultures were then exposed to different concentrations of antibiotics (Penicillin G, Ampicillin, Cefozolin or Vancomycin). […] Cell cultures were dispersed every 18 h before OD600 was measured to determine the lowest concentration of antibiotic with 90% growth inhibition (MIC90). Antibiotic treated cells (8 μl) from each well were re-suspended into PBS (100 μl) and plated (54 μl) on TS agar plates and allowed to grow for an additional 24 h at 37° C. Cell count was performed to determine the lowest concentration of antibiotic with 90% killing of original inoculums (MBC90). (III) Penicillin Killing and Regrowth Tolerance Assay by Microbroth Dilution. Three GBS laboratory strains (i.e., A909, NEM316, and O90R) were cultured overnight for 18 h at 37° C. in THB. Subcultures in THB were subsequently grown to exponential phase (OD600˜0.3) at 37° C. Cell cultures were then exposed to different concentrations of Penicillin G (Sigma, St. Louis, Mo.). […] Cell cultures were dispersed. A 1:20 dilution of cells was re-plated into new wells containing fresh THB with 500 U Penase (to degrade residual penicillin). Cell cultures were allowed to re-grow for an additional 24 h at 37° C. before the OD600 was measured. (IV) Measuring Cell Viability by Determining ATP Concentration. GBS strains were cultured for 18 h at 37° C. in THB. These cells were inoculated into fresh THB and subsequently allowed to grow to exponential phase (OD600 0.25-0.3) at 37° C. One ml of each culture was centrifuged at 5,000×g for 4 min. The cell pellet was re-suspended in ATP-free water. Cellular ATP was extracted using trichloroacetic acid (TCA) (5%) for 2 min and subsequently neutralized with Tris-EDTA-0.1M NaOAc, pH 7.75 to 10×TCA volume. The initial (in.) cellular ATP concentration ([ATP]) was measured using the ENLITEN (Promega) luciferase based reaction kit. THB cultures were then treated with 100×MIC90 Penicillin G for 22 h. The experimental (exp.) cellular ATP was extracted and the concentration was measured as stated above. Based on the calculations ([ATP] exp.)/([ATP] in./O.D. in.), differences in viability were equated with the change in [ATP]. (V) Measuring Penicillin Induced Lysis. Three GBS laboratory strains (A909, NEM316, and O90R) were cultured for 18 h at 37° C. in THB. […]
structure (smiles),measurement,setting,value
CC1(C)S[C@@H]2[C@H](NC(=O)Cc3ccccc3)C(=O)N2[C@H]1C(=O)O [Penicillin G],"100xMIC, regrowth O.D.600",GBS strain 47 (III),−− (“−−” indicates an O.D.600 of 0.001 to 0.099)
same,"300xMIC, regrowth O.D.600",GBS strain 47 (III),−− (“−−” indicates an O.D.600 of 0.001 to 0.099)
same,"10xMIC, regrowth O.D.600",GBS strain 60 (NT),+ (“+” indicates an O.D.600 of 0.100 to 0.250)
same,"30xMIC, regrowth O.D.600",GBS strain 60 (NT),++ (“++” indicates an O.D.600 of 0.251 to 0.750)
same,"100xMIC, regrowth O.D.600",GBS strain 60 (NT),+ (“+” indicates an O.D.600 of 0.100 to 0.250)
same,"300xMIC, regrowth O.D.600",GBS strain 60 (NT),+ (“+” indicates an O.D.600 of 0.100 to 0.250)
same,"10xMIC, regrowth O.D.600",GBS strain 68 (III),+ (“+” indicates an O.D.600 of 0.100 to 0.250)
same,"30xMIC, regrowth O.D.600",GBS strain 68 (III),−− (“−−” indicates an O.D.600 of 0.001 to 0.099)
same,"100xMIC, regrowth O.D.600",GBS strain 68 (III),+ (“+” indicates an O.D.600 of 0.100 to 0.250)
same,"300xMIC, regrowth O.D.600",GBS strain 68 (III),+ (“+” indicates an O.D.600 of 0.100 to 0.250)
same,"10xMIC, regrowth O.D.600",GBS strain 71 (III),−− (“−−” indicates an O.D.600 of 0.001 to 0.099)
same,"30xMIC, regrowth O.D.600",GBS strain 71 (III),−− (“−−” indicates an O.D.600 of 0.001 to 0.099)
same,"100xMIC, regrowth O.D.600",GBS strain 71 (III),−− (“−−” indicates an O.D.600 of 0.001 to 0.099)
same,"300xMIC, regrowth O.D.600",GBS strain 71 (III),−− (“−−” indicates an O.D.600 of 0.001 to 0.099)
same,"10xMIC, regrowth O.D.600",GBS strain 90 (Ib),−− (“−−” indicates an O.D.600 of 0.001 to 0.099)
same,"30xMIC, regrowth O.D.600",GBS strain 90 (Ib),−− (“−−” indicates an O.D.600 of 0.001 to 0.099)
same,"100xMIC, regrowth O.D.600",GBS strain 90 (Ib),−− (“−−” indicates an O.D.600 of 0.001 to 0.099)
same,"300xMIC, regrowth O.D.600",GBS strain 90 (Ib),−− (“−−” indicates an O.D.600 of 0.001 to 0.099)
same,"10xMIC, regrowth O.D.600",GBS strain 91 (III),−− (“−−” indicates an O.D.600 of 0.001 to 0.099)
same,"30xMIC, regrowth O.D.600",GBS strain 91 (III),−− (“−−” indicates an O.D.600 of 0.001 to 0.099)
same,"100xMIC, regrowth O.D.600",GBS strain 91 (III),−− (“−−” indicates an O.D.600 of 0.001 to 0.099)
same,"300xMIC, regrowth O.D.600",GBS strain 91 (III),−− (“−−” indicates an O.D.600 of 0.001 to 0.099)
same,"10xMIC, regrowth O.D.600",GBS strain 93 (Ib),−− (“−−” indicates an O.D.600 of 0.001 to 0.099)
same,"30xMIC, regrowth O.D.600",GBS strain 93 (Ib),−− (“−−” indicates an O.D.600 of 0.001 to 0.099)
same,"100xMIC, regrowth O.D.600",GBS strain 93 (Ib),−− (“−−” indicates an O.D.600 of 0.001 to 0.099)
same,"300xMIC, regrowth O.D.600",GBS strain 93 (Ib),−− (“−−” indicates an O.D.600 of 0.001 to 0.099)
same,"10xMIC, regrowth O.D.600",GBS strain 97 (V),−− (“−−” indicates an O.D.600 of 0.001 to 0.099)
same,"30xMIC, regrowth O.D.600",GBS strain 97 (V),++ (“++” indicates an O.D.600 of 0.251 to 0.750)
same,"100xMIC, regrowth O.D.600",GBS strain 97 (V),++ (“++” indicates an O.D.600 of 0.251 to 0.750)
same,"300xMIC, regrowth O.D.600",GBS strain 97 (V),++ (“++” indicates an O.D.600 of 0.251 to 0.750)
same,"10xMIC, regrowth O.D.600",GBS strain 101 (NT),−− (“−−” indicates an O.D.600 of 0.001 to 0.099)
same,"30xMIC, regrowth O.D.600",GBS strain 101 (NT),−− (“−−” indicates an O.D.600 of 0.001 to 0.099)
same,"100xMIC, regrowth O.D.600",GBS strain 101 (NT),−− (“−−” indicates an O.D.600 of 0.001 to 0.099)
same,"300xMIC, regrowth O.D.600",GBS strain 101 (NT),−− (“−−” indicates an O.D.600 of 0.001 to 0.099)
same,"10xMIC, regrowth O.D.600",GBS strain 117 (Ia),+ (“+” indicates an O.D.600 of 0.100 to 0.250)
same,"30xMIC, regrowth O.D.600",GBS strain 117 (Ia),+ (“+” indicates an O.D.600 of 0.100 to 0.250)
same,"100xMIC, regrowth O.D.600",GBS strain 117 (Ia),+ (“+” indicates an O.D.600 of 0.100 to 0.250)
same,"300xMIC, regrowth O.D.600",GBS strain 117 (Ia),+ (“+” indicates an O.D.600 of 0.100 to 0.250)
same,"10xMIC, regrowth O.D.600",GBS strain 122 (III),−− (“−−” indicates an O.D.600 of 0.001 to 0.099)
same,"30xMIC, regrowth O.D.600",GBS strain 122 (III),−− (“−−” indicates an O.D.600 of 0.001 to 0.099)
same,"100xMIC, regrowth O.D.600",GBS strain 122 (III),−− (“−−” indicates an O.D.600 of 0.001 to 0.099)
same,"300xMIC, regrowth O.D.600",GBS strain 122 (III),−− (“−−” indicates an O.D.600 of 0.001 to 0.099)
same,"10xMIC, regrowth O.D.600",GBS strain 127 (Ia),−− (“−−” indicates an O.D.600 of 0.001 to 0.099)
same,"30xMIC, regrowth O.D.600",GBS strain 127 (Ia),++ (“++” indicates an O.D.600 of 0.251 to 0.750)
same,"100xMIC, regrowth O.D.600",GBS strain 127 (Ia),++ (“++” indicates an O.D.600 of 0.251 to 0.750)
same,"300xMIC, regrowth O.D.600",GBS strain 127 (Ia),++ (“++” indicates an O.D.600 of 0.251 to 0.750)
same,"10xMIC, regrowth O.D.600",GBS strain 129 (V),−− (“−−” indicates an O.D.600 of 0.001 to 0.099)
same,"30xMIC, regrowth O.D.600",GBS strain 129 (V),−− (“−−” indicates an O.D.600 of 0.001 to 0.099)
same,"100xMIC, regrowth O.D.600",GBS strain 129 (V),−− (“−−” indicates an O.D.600 of 0.001 to 0.099)
same,"300xMIC, regrowth O.D.600",GBS strain 129 (V),−− (“−−” indicates an O.D.600 of 0.001 to 0.099)
same,"10xMIC, regrowth O.D.600",GBS strain 131 (V),−− (“−−” indicates an O.D.600 of 0.001 to 0.099)
same,"30xMIC, regrowth O.D.600",GBS strain 131 (V),−− (“−−” indicates an O.D.600 of 0.001 to 0.099)
same,"100xMIC, regrowth O.D.600",GBS strain 131 (V),−− (“−−” indicates an O.D.600 of 0.001 to 0.099)
same,"300xMIC, regrowth O.D.600",GBS strain 131 (V),−− (“−−” indicates an O.D.600 of 0.001 to 0.099)
same,"10xMIC, regrowth O.D.600",GBS strain 156 (Ia),−− (“−−” indicates an O.D.600 of 0.001 to 0.099)
same,"30xMIC, regrowth O.D.600",GBS strain 156 (Ia),−− (“−−” indicates an O.D.600 of 0.001 to 0.099)
same,"100xMIC, regrowth O.D.600",GBS strain 156 (Ia),−− (“−−” indicates an O.D.600 of 0.001 to 0.099)
same,"300xMIC, regrowth O.D.600",GBS strain 156 (Ia),++ (“++” indicates an O.D.600 of 0.251 to 0.750)
same,"10xMIC, regrowth O.D.600",GBS strain 172 (NT),−− (“−−” indicates an O.D.600 of 0.001 to 0.099)
